From US20140249490A1, “Methods for Prevention and/or Treatment of Capsular Contracture” (J&E SOLUTIONS, LLC, priority 2013, published 2014)

Test system: capsular contracture
Test: Clinical cases: topical treatment of breast capsular contracture, Baker grading
Format: in vivo, human
Settings: Patient #1; bilateral Grade 3 capsular contracture, after first revision; given together with massage
Excerpt: Wash and dry the affected area (that is, the skin surrounding the implant or the skin over the capsular contracture) prior to use. Apply the composition daily (use sparingly) with vigorous massage to affected area. If necessary, exert compression or pressure when massaging to break up existing capsule. Enhanced absorption is obtained with application of the composition following a hot shower. Occlusive dressing (hydrogel), or tight clothing (sports bras), will also enhance the result. Continued daily use will yield optimal results. […] Optimal results are best maintained with daily continued application. One particularly useful embodiment of the invention involves the use of the topical compositions for the treatment/prevention of capsular contracture in breast surgery (e.g., breast implants). There are four grades of breast capsular contracture—Baker grades I through IV. The Baker grading is as follows: Grade 1—the breast is normally soft and looks natural Grade II—the breast is a little firm but looks normal Grade III—the breast is firm and looks abnormal Grade IV—the breast is hard, painful, and looks abnormal. of developed or is at risk of developing capsular contracture a topical composition.

COc1ccc2cc([C@H](C)C(=O)O)ccc2c1 [Aleve, naproxen sodium] was tested, and the “response of capsular contracture to treatment” value was “without result”.
